The source of these data is publication PMC8576328, “Broad-Spectrum Inhibitor of Bacterial Polyphosphate Homeostasis Attenuates Virulence Factors and Helps Reveal Novel Physiology of Klebsiella pneumoniae and Acinetobacter baumannii” (Frontiers in Microbiology, 2021).

In experiment [1] the target is T1, K. pneumoniae PPK1 (KP) (Klebsiella pneumoniae, UniProt A6TCB5). As to the kind of experiment: biochemical. Set-up: gene ppk.
The next experiment has as its target T2, PPK1B (Acinetobacter baumannii, UniProt A0A0D5YLD5).
T2 construct: gene ppk2; AB5075 PPK1B (ABUW_2907), N-terminal His6-tag
As to the kind of experiment: polyP synthesis kinetics with purified enzyme, varying ATP. It counts as biochemical.

Experiment [2] concerns the target T1, K. pneumoniae PPK1 (KP). As to the kind of experiment: polyP synthesis, toluidine blue A630/[…]. Format: biochemical. Set-up: gene ppk; codon-optimised gene in pET28a, C-terminal His6-tag, E. coli BL21, Ni-NTA purified.
In another experiment the target is T3, PPK1A (Acinetobacter baumannii, UniProt A0A0D5YJ41).
T3 construct: gene ppk1; AB5075 PPK1A (ABUW_2072), C-terminal His6-tag
T3 sequence (A0A0D5YJ41 entry or part of it): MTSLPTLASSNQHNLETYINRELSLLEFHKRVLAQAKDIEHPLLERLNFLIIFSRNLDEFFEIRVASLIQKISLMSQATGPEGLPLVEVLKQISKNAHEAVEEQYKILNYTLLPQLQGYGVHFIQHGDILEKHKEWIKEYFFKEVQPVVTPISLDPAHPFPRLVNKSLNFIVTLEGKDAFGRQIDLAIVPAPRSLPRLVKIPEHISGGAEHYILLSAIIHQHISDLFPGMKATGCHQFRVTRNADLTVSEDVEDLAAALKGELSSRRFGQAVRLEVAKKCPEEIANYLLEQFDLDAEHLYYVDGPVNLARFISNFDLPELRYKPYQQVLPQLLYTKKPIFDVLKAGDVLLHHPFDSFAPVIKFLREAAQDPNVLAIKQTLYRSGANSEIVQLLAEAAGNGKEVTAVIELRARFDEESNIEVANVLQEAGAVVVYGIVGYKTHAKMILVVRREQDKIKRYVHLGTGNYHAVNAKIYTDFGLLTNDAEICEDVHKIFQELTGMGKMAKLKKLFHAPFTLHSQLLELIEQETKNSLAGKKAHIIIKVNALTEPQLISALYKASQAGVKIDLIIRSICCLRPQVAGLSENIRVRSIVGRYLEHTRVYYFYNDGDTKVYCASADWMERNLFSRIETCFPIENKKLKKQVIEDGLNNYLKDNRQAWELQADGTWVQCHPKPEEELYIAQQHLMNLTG
Kind of experiment: polyP synthesis kinetics with purified enzyme, varying ATP. It counts as biochemical.

SMILES strings stand for the structures.

T1 sequence (A6TCB5 entry or part of it): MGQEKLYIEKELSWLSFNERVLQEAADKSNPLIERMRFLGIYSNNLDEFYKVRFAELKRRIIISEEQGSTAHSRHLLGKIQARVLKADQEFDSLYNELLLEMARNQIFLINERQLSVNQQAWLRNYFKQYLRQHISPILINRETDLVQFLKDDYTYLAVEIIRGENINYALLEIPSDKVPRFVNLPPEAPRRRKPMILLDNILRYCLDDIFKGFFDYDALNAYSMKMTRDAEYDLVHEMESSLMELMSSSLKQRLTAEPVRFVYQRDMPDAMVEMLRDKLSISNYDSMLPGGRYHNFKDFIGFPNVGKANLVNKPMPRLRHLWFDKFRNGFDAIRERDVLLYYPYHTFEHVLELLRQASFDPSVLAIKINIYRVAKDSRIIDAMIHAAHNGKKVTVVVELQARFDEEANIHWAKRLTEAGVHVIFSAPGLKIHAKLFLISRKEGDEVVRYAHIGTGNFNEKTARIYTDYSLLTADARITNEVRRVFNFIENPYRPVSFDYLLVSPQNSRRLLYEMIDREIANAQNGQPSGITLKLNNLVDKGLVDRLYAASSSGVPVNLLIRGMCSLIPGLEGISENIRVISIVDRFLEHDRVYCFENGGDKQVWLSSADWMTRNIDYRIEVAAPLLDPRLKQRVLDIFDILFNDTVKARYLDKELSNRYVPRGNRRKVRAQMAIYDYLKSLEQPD
T2 sequence (A0A0D5YLD5 entry or part of it): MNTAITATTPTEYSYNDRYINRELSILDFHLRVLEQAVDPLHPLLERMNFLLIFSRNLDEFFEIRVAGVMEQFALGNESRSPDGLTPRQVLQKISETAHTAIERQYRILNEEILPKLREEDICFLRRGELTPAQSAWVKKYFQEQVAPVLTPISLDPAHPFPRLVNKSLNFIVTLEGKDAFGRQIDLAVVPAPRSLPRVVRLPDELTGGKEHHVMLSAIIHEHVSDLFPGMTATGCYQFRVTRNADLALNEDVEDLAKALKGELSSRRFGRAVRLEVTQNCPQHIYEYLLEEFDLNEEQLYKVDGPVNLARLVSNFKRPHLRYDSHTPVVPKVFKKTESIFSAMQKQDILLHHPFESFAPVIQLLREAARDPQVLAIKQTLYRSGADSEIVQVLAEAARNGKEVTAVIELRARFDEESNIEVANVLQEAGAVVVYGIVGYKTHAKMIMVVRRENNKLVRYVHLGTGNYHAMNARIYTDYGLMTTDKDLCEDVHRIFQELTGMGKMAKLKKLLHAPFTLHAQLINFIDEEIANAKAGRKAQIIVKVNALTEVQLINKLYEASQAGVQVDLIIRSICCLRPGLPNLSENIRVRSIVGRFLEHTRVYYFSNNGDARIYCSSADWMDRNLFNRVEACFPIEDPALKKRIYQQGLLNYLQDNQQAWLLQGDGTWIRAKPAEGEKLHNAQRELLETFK

As to `Nc1ncnc2c1ncn2[C@@H]1O[C@H](COP(=O)(O)OP(=O)(O)OP(=O)(O)O)[C@@H](O)[C@H]1O` [ATP], the Ki at K. pneumoniae PPK1 (KP) [1] was determined as 9.33 ± 1.69 mM.

In the case of `O=C1OC2(c3ccccc31)c1ccc(O)c(O)c1Oc1c2ccc(O)c1O` [gallein], the “polyP synthesis kinetics with purified enzyme, varying ATP” value on PPK1B was “Both PPK1A and PPK1B were capable of in vitro polyP synthesis, and also exhibited inhibition by gallein”; on PPK1A, “Both PPK1A and PPK1B were capable of in vitro polyP synthesis, and also exhibited inhibition by gallein”. The same compound gave an IC50 on K. pneumoniae PPK1 (KP) [2] of 0.0165 mM.

The term Ki denotes the dissociation constant of the complex between target and ligand, obtained from inhibition or displacement. The term IC50 denotes the point on the concentration scale where inhibition reaches its midpoint. A lower IC50 goes with greater potency in that assay.
